Measurements reported in patent publication US8835472B2, “Compounds, pharmaceutical compositions and uses thereof” (Boehringer Ingelheim International GmbH, priority 2010, dated 2014).

biological target: human ACC2 (Homo sapiens (Human), UniProt O00763); test: ACC2 assay, spectrophotometric 384 well assay (NADH-linked, coupled lactate dehydrogenase/pyruvate kinase reaction); type: biochemical; conditions: hACC2 construct lacking the 128 N-terminal amino acids; 25° C., 340 nm over 15 minutes
How it was run: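 N-terminally truncated human ACC2 (lacking 128 residues) expressed in insect cells; coupled PK/LDH read-out of ADP as NADH loss at 340 nm, 15 min, 25 °C. Tris pH 7.5 with citrate and KHCO3; 200 μM acetyl-CoA, 500 μM ATP, 1% DMSO.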

Sequence of human ACC2 (O00763 129-2458): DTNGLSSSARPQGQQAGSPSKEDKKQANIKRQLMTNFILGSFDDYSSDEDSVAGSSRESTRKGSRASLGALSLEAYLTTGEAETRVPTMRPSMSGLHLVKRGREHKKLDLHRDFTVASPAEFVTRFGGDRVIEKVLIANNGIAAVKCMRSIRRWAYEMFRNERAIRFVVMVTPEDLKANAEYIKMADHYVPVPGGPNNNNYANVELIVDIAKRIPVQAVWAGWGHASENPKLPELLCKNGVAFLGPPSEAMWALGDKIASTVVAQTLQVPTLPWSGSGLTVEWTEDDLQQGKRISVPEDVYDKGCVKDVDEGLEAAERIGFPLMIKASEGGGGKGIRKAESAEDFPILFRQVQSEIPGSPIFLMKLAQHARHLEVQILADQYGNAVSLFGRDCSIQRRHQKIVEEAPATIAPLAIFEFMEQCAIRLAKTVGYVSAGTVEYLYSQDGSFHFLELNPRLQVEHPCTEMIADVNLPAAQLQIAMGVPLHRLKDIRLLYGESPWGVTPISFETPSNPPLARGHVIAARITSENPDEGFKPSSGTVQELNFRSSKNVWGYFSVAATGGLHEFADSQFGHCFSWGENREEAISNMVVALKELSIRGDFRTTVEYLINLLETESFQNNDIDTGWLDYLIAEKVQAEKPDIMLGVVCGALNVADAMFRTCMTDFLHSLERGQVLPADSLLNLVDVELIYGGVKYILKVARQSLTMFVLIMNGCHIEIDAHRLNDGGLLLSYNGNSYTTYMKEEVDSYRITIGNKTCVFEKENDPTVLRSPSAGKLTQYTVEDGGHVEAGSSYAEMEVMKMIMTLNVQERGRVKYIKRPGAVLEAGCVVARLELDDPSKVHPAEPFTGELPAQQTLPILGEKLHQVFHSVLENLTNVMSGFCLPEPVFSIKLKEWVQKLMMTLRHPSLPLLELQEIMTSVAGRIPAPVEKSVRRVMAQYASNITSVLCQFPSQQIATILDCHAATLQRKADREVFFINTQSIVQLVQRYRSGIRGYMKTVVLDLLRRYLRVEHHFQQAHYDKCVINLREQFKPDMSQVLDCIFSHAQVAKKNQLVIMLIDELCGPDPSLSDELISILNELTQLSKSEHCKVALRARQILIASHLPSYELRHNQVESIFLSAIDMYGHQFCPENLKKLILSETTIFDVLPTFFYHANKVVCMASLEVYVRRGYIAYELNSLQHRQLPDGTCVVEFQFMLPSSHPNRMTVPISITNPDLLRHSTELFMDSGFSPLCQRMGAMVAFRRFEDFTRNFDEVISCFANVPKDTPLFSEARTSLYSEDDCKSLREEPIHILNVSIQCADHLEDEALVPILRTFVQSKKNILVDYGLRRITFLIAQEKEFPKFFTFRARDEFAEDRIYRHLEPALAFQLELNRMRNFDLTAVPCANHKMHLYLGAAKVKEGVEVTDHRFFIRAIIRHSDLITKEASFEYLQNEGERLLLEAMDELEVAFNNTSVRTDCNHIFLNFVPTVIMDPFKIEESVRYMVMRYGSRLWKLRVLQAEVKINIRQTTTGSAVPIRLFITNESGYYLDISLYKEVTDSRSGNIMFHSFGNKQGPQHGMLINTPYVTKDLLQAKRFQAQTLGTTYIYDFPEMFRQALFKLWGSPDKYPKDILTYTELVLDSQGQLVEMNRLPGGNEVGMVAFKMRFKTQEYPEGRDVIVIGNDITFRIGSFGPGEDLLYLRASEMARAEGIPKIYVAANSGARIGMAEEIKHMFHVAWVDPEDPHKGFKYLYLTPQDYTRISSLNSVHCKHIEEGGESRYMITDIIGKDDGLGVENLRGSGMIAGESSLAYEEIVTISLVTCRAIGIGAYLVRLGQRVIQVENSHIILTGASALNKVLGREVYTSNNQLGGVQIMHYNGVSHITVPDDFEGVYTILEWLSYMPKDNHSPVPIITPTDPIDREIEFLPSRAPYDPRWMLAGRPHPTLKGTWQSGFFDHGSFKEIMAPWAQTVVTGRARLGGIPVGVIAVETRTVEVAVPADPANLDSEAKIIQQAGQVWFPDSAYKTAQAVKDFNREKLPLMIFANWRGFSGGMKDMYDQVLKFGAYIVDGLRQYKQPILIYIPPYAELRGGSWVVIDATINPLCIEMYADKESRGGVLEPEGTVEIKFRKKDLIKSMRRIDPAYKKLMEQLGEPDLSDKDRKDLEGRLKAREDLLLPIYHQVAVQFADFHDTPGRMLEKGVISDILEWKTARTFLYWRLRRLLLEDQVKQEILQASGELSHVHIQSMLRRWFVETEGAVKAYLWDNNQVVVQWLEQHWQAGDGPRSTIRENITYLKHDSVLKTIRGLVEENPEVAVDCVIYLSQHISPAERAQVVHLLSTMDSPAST

CCOc1ccc(C#Cc2ccc([C@H](C)NC(=O)C3CC3)cc2)cc1 [Example 14.49] and CCOc1ccc(C#Cc2ccc(C(C)NC(C)=O)cc2)cc1 (stereo not shown) [Example 14.51] are within 1.5-fold of each other in IC50: 320 nM for the first, 400 nM for the second.

First: CC(=O)NC(C)Cc1ccc(C#Cc2ccc(OC(F)(F)F)cc2)cc1 (stereo not shown) [Example 14.50]
Second: CCOc1ccc(C#Cc2ccc(C[C@H](C)NC(C)=O)cc2)cc1 [Example 24.2]
The IC50 of the first is 19-fold higher: 1500 nM for the first, 80 nM for the second.

Going from CCOc1cccc(C#Cc2ccc(CC(C)NC(=O)C3CC3)cc2)c1 (stereo not shown) [Example 14.52] to CCOc1ccc(C#Cc2ccc(CC(C)NC(=O)OC)cc2)cc1 (stereo not shown) [Example 29.2], the IC50 falls from 3800 nM to 310 nM (12-fold). The second is the more potent here.

Going from CCOc1ccc(C#Cc2ccc(CCC(C)NC(C)=O)cc2)cn1 (stereo not shown) [Example 14.53] to CCOc1ccc(C#Cc2ccc(C[C@H](C)NC(C)=O)cc2)cn1 [Example 23.5], the IC50 falls from 280 nM to 80 nM (3.5-fold). The second is the more potent here.

CC(=O)NC(C)CCc1ccc(C#Cc2cnc(OC3CCC3)nc2)cc1 (stereo not shown) [Example 14.54] and CC(=O)NC(C)Cc1ccc(C#Cc2cnc(OC3CCCC3)nc2)cc1 (stereo not shown) [Example 27.1, N-{2-[4-(2-Cyclopentyloxy-pyrimidin-5-ylethynyl)-phenyl]-1-methyl-ethyl}-acetamide] are within 1.5-fold of each other in IC50: 240 nM for the first, 200 nM for the second.

First: CC(=O)NC(C)Cc1ccc(C#Cc2ccc3c(c2)OCC(C)(C)CO3)cc1 (stereo not shown) [Example 14.55]
Second: CSc1ccc(C#Cc2ccc(CC(C)NC(C)=O)cc2)cc1 (stereo not shown) [Example 23.10]
The IC50 of the first is 1.8-fold lower: 120 nM for the first, 220 nM for the second. The first is the more potent here.

Compared with CCOc1ccc(C#Cc2ccc(CCNC(=O)CC)cc2)cc1 [Example 16.1, N-(4-((4-Ethoxyphenyl)ethynyl)phenethyl)propionamide], CCOc1ccc(C#Cc2ccc(CCNC(C)=O)cc2)cc1 [Example 16.3] is 2.6-fold lower in IC50: 1100 nM for the first, 430 nM for the second. The second is the more potent here.

Going from CCOc1ccc(C#Cc2ccc(CN3CCCC3=O)cc2)cc1 [Example 16.2] to CCOc1ccc(C#Cc2ccc(CC(C)N(C)C(C)=O)cc2)cc1 (stereo not shown) [Example 18.1, N-{2-[4-(4-Ethoxy-phenylethynyl)-phenyl]-1-methyl-ethyl}-N-methyl-acetamide], the IC50 rises from 3200 nM to 13700 nM (4.3-fold). The first is the more potent here.

First: CCOc1ccc(C#Cc2ccc(CC(C)N(C)C(=O)CC)cc2)cc1 (stereo not shown) [Example 18.2]
Second: CCOc1ccc(C#Cc2ccc(CC(CC)NC(C)=O)cc2)cc1 (stereo not shown) [Example 27.3]
The IC50 of the first is 29-fold higher: 4400 nM for the first, 150 nM for the second.

Going from COCCOc1cc(C#Cc2ccc(CC(C)NC(C)=O)cc2)ccn1 (stereo not shown) [Example 20.1, N-(2-{4-[2-(2-Methoxy-ethoxy)-pyridin-4-ylethynyl]-phenyl}-1-methyl-ethyl)-acetamide; compound with trifluoro-acetic acid] to CCOc1cc(C#Cc2ccc(CC(C)NC(=O)N(C)C)cc2)ccn1 (stereo not shown) [Example 20.2], the IC50 falls from 980 nM to 600 nM (1.6-fold).

CC(=O)N[C@@H](C)Cc1ccc(C#Cc2ccc(OC(C)C)cc2)cc1 [Example 23.2] and CCC(C)Oc1ccc(C#Cc2ccc(CC(C)NC(C)=O)cc2)cc1 (stereo not shown) [Example 23.9] are within 1.5-fold of each other in IC50: 130 nM for the first, 140 nM for the second.

Compared with CC(=O)N[C@@H](C)Cc1ccc(C#Cc2ccc(OCC(C)C)cc2)cc1 [Example 23.3], CCCOc1ccc(C#Cc2ccc(C[C@H](C)NC(C)=O)cc2)cc1 [Example 23.6] is 5.7-fold lower in IC50: 400 nM for the first, 70 nM for the second. The second is the more potent here.

CC(=O)N[C@@H](C)Cc1ccc(C#Cc2ccc(C(C)(C)C)cc2)cc1 [Example 23.4] and CCCOc1ccc(C#Cc2ccc(CC(C)NC(C)=O)cc2)cc1 (stereo not shown) [Example 24.1, N-{1-Methyl-2-[4-(4-propoxy-phenylethynyl)-phenyl]-ethyl}-acetamide] are within 1.5-fold of each other in IC50: 90 nM for the first, 70 nM for the second.

CC(=O)NC(C)Cc1ccc(C#Cc2ccc(-c3cnco3)cc2)cc1 (stereo not shown) [Example 23.7] and CC(=O)NC(C)Cc1ccc(C#Cc2ccc(OCc3nccs3)cc2)cc1 (stereo not shown) [Example 31.1, N-(1-Methyl-2-(4-(4-(thiazol-2-ylmethoxy)-phenylethynyl)-phenyl)-ethyl)-acetamide] are within 1.5-fold of each other in IC50: 1600 nM for the first, 1700 nM for the second.

Compared with CCCOc1ccc(C#Cc2ccc(CC(C)NC(C)=O)cc2)nc1 (stereo not shown) [Example 23.8], CCOc1ccc(C#Cc2ccc(CC(C)NC(C)=O)cc2)nc1 (stereo not shown) [Example 23.13] is 2.5-fold higher in IC50: 180 nM for the first, 450 nM for the second. The first is the more potent here.

Compared with CC(Cc1ccc(C#Cc2ccc(Oc3cncnc3)cc2)cc1)NC(=O)C1CC1 (stereo not shown) [Example 23.11], CC(=O)NC(C)Cc1ccc(C#Cc2ccc(OC3COC3)cc2)cc1 (stereo not shown) [Example 31.2] is 7-fold lower in IC50: 1400 nM for the first, 200 nM for the second.

First: CC(=O)NC(C)Cc1ccc(C#Cc2ccc(OCC(C)C)cn2)cc1 (stereo not shown) [Example 23.12]
Second: CCOc1ccc(C#Cc2ccc(CCNC(C)=O)cn2)cc1 [Example 35.3]
The IC50 of the first is 41-fold lower: 650 nM for the first, 26900 nM for the second.

Compared with CCCOc1ccc(C#Cc2ccc(C(C)(C)CNC(C)=O)cc2)nc1 [Example 23.14], CCCOc1ccc(C#Cc2ccc(CC(C)(C)NC(C)=O)cc2)cc1 [Example 35.1, N-(1,1-Dimethyl-2-(4-(4-propoxyphenylethynyl)-phenyl)-ethyl)-acetamide] is 9.3-fold lower in IC50: 650 nM for the first, 70 nM for the second.

Compared with CC(=O)NC(C)(C)c1ccc(C#Cc2cnc(OC3CCC3)nc2)cc1 [Example 23.15], CC(=O)NCC(C)c1ccc(C#Cc2cnc(OC3CCC3)nc2)cc1 (stereo not shown) [Example 32.3] is 310-fold lower in IC50: 21500 nM for the first, 70 nM for the second.

Compared with CC(=O)N[C@@H](C)Cc1ccc(C#Cc2ccc(Oc3ccccc3)nc2)cc1 [Example 24.3], CCOc1ccc(C#Cc2ccc(CC(COC)NC(C)=O)cc2)cc1 (stereo not shown) [Example 27.2] is 7.1-fold higher in IC50: 170 nM for the first, 1200 nM for the second. The first is the more potent here.

Compared with CCOc1ccc(C#Cc2ccc(C(C)NC(=O)OC)cc2)cc1 (stereo not shown) [Example 29.1, {1-[4-(4-Ethoxy-phenylethynyl)-phenyl]ethyl}-carbamic acid methyl ester], CCCOc1ccc(C#Cc2ccc(C(C)CNC(C)=O)cc2)cc1 (stereo not shown) [Example 32.1, N-{2-[4-(4-Propoxy-phenylethynyl)-phenyl]-propyl}-acetamide] is 190-fold lower in IC50: 13100 nM for the first, 70 nM for the second.

CCCOc1ccc(C#Cc2ccc(C(C)CNC(=O)C3CC3)cc2)cc1 (stereo not shown) [Example 32.2] and CCCOc1ccc(C#Cc2ccc(C(C)CNC(=O)N(C)C)cc2)cc1 (stereo not shown) [Example 33.1, 1,1-Dimethyl-3-{2-[4-(4-propoxy-phenylethynyl)-phenyl]-propyl}-urea] are within 1.5-fold of each other in IC50: 200 nM for the first, 160 nM for the second.

First: CC(CNC(=O)C1CC1)c1ccc(C#Cc2cnc(OC3CCC3)nc2)cc1 (stereo not shown) [Example 32.4]
Second: CC(CNC(=O)N(C)C)c1ccc(C#Cc2cnc(OC3CCC3)nc2)cc1 (stereo not shown) [Example 33.2]
The IC50 of the first is 6.2-fold higher: 810 nM for the first, 130 nM for the second. The second is the more potent here.

Compared with CCNC(=O)NCC(C)c1ccc(C#Cc2cnc(OC3CCC3)nc2)cc1 (stereo not shown) [Example 33.3], COC(=O)NCC(C)c1ccc(C#Cc2cnc(OC3CCC3)nc2)cc1 (stereo not shown) [Example 33.4] is 4.4-fold lower in IC50: 2300 nM for the first, 520 nM for the second. The second is the more potent here.

CCCOc1ccc(C#Cc2ccc(CC(C)(C)NC(=O)C3CC3)cc2)cc1 [Example 35.2] gave an IC50 of 330 nM.
